Measurements reported in patent publication US8946260B2, “17α-hydroxylase/C17,20-lyase inhibitors” (Novartis AG, priority 2010, dated 2015).

Each molecule was assayed against T1, recombinant Human CYP17 enzyme (17-20 lyase) (Homo sapiens, UniProt P05093) (assay: Cytochrome P450, 17-20 lyase (CYP17-lyase) assay, 17-α-hydroxy pregnenolone [21-3H] as substrate). Conditions: at 10 μM; read-out: hCYP17 Lyase % Inh.
T1 construct: made in house; host or cells: A549 cells, adenoviral expression system; purified cell membrane preparations
T1 sequence (P05093 1-508): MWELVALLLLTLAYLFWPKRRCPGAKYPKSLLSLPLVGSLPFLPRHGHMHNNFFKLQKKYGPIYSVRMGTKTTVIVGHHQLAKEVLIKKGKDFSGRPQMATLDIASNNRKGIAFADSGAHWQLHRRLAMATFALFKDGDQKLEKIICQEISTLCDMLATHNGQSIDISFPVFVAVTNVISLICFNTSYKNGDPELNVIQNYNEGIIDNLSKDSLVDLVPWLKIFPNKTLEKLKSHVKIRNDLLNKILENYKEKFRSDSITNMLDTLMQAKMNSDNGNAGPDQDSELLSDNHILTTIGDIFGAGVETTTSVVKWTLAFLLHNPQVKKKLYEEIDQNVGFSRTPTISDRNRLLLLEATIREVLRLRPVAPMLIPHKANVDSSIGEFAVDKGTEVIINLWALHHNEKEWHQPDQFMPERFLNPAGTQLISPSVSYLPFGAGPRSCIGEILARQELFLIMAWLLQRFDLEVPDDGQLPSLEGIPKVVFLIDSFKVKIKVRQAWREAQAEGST
Type: biochemical
From the text: 1) Cytochrome P450, 17-20 Lyase (CYP17-Lyase) Assay Development Using Recombinant Human CYP17 Enzyme and 17-α-Hydroxy Pregnenolone [21-3H] as the Substrate.
Cytochrome P450, 17-α-Hydroxylase, 17-20 lyase (CYP17) is a multi functional enzyme that plays a key role in the biosynthesis of steroid hormones. It catalyses both conventional hydroxylation and also the carbon-carbon bond cleavage reactions (Peter Lee-Robichaud et al, Biochem. J, (1997) 321, 857-63). In the hydroxylation reaction, it converts progesterone and pregnenolone to the corresponding hydroxylated products 17-α-hydroxy progesterone and 17-α-hydroxy pregnenolone. In the lyase reaction, it catalyzes the conversion of these hydroxylated substrates to Androstenedione and Dehydroepiandrosterone (DHEA) respectively. In the Cyp17 lyase assay described here, the conversion of 17-α-hydroxy pregnenolone to Dehydroepiandrosterone and acetic acid is being monitored.
Assay method was adopted from a published protocol with some modifications to suit our requirements (Dmitry N Grigoryev et al, Analytical Biochemistry, (1999) 267, 319-330). The conversion of 17-α-hydroxy pregnenolone to Dehydroepiandrosterone is accompanied by the release of acetic acid. In the Cyp17 lyase assay, 17-α-hydroxy pregnenolone labeled with tritium (3H) at position 21 is used as the substrate. Chloroform extraction removes the radioactive steroids and acetic acid is taken into aqueous layer. The tritiated acetic acid released in the assay thus extracted is quantified to determine the enzyme activity.
Initial buffer conditions were, 50 mM Phosphate buffer, pH 7.5 was used as the starting buffer for Cyp17 lyase activity based on the data published in US patent publication No. US2004/0198773 A1. […] Human Cyp 17 gene was cloned and expressed in Adenoviral expression system in A549 cell lines. The purified cell membrane preparations were used as the source for Human CYP17 enzyme. Total protein concentration: 8 mg/mL.
For routine screening, the assay was set up with 16 μg of enzyme in 50 μL reaction volume. 17α-hydroxy pregnenolone [21-3H] was added to a final concentration of 0.25 μM. NADPH is used at a final concentration of 4.2 mM. Total reaction volume was made up to 50 μL with 50 mM Phosphate buffer pH 7.5. The reaction mixture was incubated at room temperature for 90 minutes with gentle shaking. The reaction was stopped by the addition of 100 μL of buffer. 500 μL of 5% freshly prepared activated charcoal was added to the solution and mixed well by vortexing. The samples were centrifuged at 17568×g for 5 minutes. (14000 rpm). The supernatant was carefully transferred to fresh tube and 1.3 mL of scintillation fluid was added, mixed by vortexing.
The radioactivity was measured in a 1450 MicroBeta TriLux™ scintillation counter from Wallac-Perkin Elmer®, USA. The measurements were carried out in 2.0 mL Eppendorf™ tubes. Each tube was counted for 1 minute. The amount of tritiated acetic acid released is proportional to the lyase activity. Percent lyase activity in presence of inhibitor was calculated using the formula given below.
[formula] • Sample: Enzyme reaction in presence of inhibitor. • Positive control: Enzyme reaction without inhibitor but containing DMSO at 1% final concentration. • Blank—Contains all reagents except enzyme. • % Inhibition=100%−% Lyase activity
For IC50 determination, the % inhibition was plotted as a function of inhibitor concentration. The data was fitted to sigmoidal equation using Graphpad Prism® software IV to generate IC50 values.

| Compound | inhibition at 10 µM [%] |
| --- | --- |
| Cc1ccncc1-n1ccc2ccc(NC(=O)C3CC3)cc2c1=O [Example 24A, Cyclopropanecarboxylic acid [2-(4-methyl-pyridin-3-yl)-1-oxo-1,2-dihydro-isoquinolin-7-yl]-amide] | 53 |
| COc1cc2c(cc1OC)C(=O)N(c1cnccc1C)CC2 [Example 40A, 6,7-Dimethoxy-2-(4-methyl-pyridin-3-yl)-3,4-dihydro-2H-isoquinolin-1-one] | 12 |
| Cc1ccncc1N1CCc2ccc(Nc3ccccc3)cc2C1=O [Example 30A, 2-(4-methylpyridin-3-yl)-7-(phenylamino)-3,4-dihydroisoquinolin-1(2H)-one] | 41 |
| Cc1ccncc1N1CCc2c(Cl)cccc2C1=O [Example 12A, 5-Chloro-2-(4-methyl-pyridin-3-yl)-3,4-dihydro-2H-isoquinolin-1-one] | 64 |
| Cc1ccncc1N1CCc2c(cccc2C(F)(F)F)C1=O [Example 22A, 2-(4-Methyl-pyridin-3-yl)-5-trifluoromethyl-3,4-dihydro-2H-isoquinolin-1-one] | 42 |

Other lines, results leading:

| inhibition at 10 µM [%] | Compound |
| --- | --- |
| 66 | Cc1ccncc1-n1ccc2ccc(C(F)(F)F)cc2c1=O [Example 29A, 2-(4-Methyl-pyridin-3-yl)-7-trifluoromethyl-2H-isoquinolin-1-one] |
| 91 | Cc1ccncc1N1CCc2ccsc2C1=O [Example 5A, 6-(4-Methyl-pyridin-3-yl)-5,6-dihydro-4H-thieno[2,3-c]pyridin-7-one] |

Same assay, conditions: human CYP17 lyase; substrate 0.25 μM; room temperature, 90 minutes; read-out: Lyase IC 50 nM Human

| Compound | IC50 [nM] |
| --- | --- |
| O=c1c2cc(C(F)(F)F)ccc2ccn1-c1cncc(F)c1 [Example 68A, 2-(5-fluoropyridin-3-yl)-7-(trifluoromethyl)isoquinolin-1(2H)-one] | 282 |
| Cc1ccncc1N1CCc2ccc(OC(F)(F)F)cc2C1=O [Example 51A, 2-(4-Methylpyridin-3-yl)-7-(trifluoromethoxy)-3,4-dihydroisoquinolin-1(2H)-one] | 22 |
| COc1cc2c(cc1Cl)C(=O)N(c1cnccc1C)CC2 [Example 86A, 7-chloro-6-methoxy-2-(4-methylpyridin-3-yl)-3,4-dihydroisoquinolin-1(2H)-one] | 11 |
| Cc1ccncc1N1CCc2c(sc3ccc(F)cc23)C1=O [Example 45A, 6-Fluoro-2-(4-methyl-pyridin-3-yl)-3,4-dihydro-2H-benzo[4,5]thieno[2,3-c]pyridin-1-one] | 211 |
| Cc1ccncc1N1CCc2cc(O)ccc2C1=O [Example 11B, 6-Hydroxy-2-(4-methyl-pyridin-3-yl)-3,4-dihydro-2H-isoquinolin-1-one] | 139 |
| Cc1ccncc1N1CCc2ccc(O)cc2C1=O [Example 27A, 7-Hydroxy-2-(4-methyl-pyridin-3-yl)-3,4-dihydro-2H-isoquinolin-1-one] | 83 |
| O=C1c2c(ccc(C(F)(F)F)c2F)CCN1c1cnccc1C(F)(F)F [Example 77A, 8-fluoro-7-(trifluoromethyl)-2-(4-(trifluoromethyl)pyridin-3-yl)-3,4-dihydroisoquinolin-1(2H)-one] | 167 |
| Cn1cncc1N1CCc2ccc(C(F)(F)F)cc2C1=O [Example 54A, 2-(1-methyl-1H-imidazol-5-yl)-7-(trifluoromethyl)-3,4-dihydroisoquinolin-1(2H)-one] | 19 |
| Cc1ccncc1N1CCc2ccc3ccccc3c2C1=O [Example 10A, 2-(4-Methyl-pyridin-3-yl)-3,4-dihydro-2H-benzo[h]isoquinolin-1-one] | 3.5 |
| O=c1c2c(ccn1-c1cnccc1C(F)(F)F)[nH]c1ccc(F)cc12 [Example 64A, 8-fluoro-2-(4-(trifluoromethyl)pyridin-3-yl)-2,5-dihydro-1H-pyrido[4,3-b]indol-1-one] | 829 |

Continued, values first:

| IC50 [nM] | Compound |
| --- | --- |
| 1140 | Cc1ccncc1N1CCc2ccncc2C1=O [Example 65A, 2-(4-methylpyridin-3-yl)-3,4-dihydro-2,7-naphthyridin-1(2H)-one] |
| 3 | O=C1c2cc(Cl)c(F)cc2CCN1c1cnccc1C1CC1 [Example 82A, 7-chloro-2-(4-cyclopropylpyridin-3-yl)-6-fluoro-3,4-dihydroisoquinolin-1(2H)-one] |
| 13 | Cc1ccncc1N1CCc2ccc(Cl)c(F)c2C1=O [Example 33A, 7-chloro-8-fluoro-2-(4-methylpyridin-3-yl)-3,4-dihydroisoquinolin-1(2H)-one] |
| 730 | O=C1c2cc3[nH]ncc3cc2CCN1c1cnccc1C(F)(F)F [Example 72A, 7-(4-(trifluoromethyl)pyridin-3-yl)-6,7-dihydro-1H-pyrazolo[4,3-g]isoquinolin-8(5H)-one] |
| 218 | O=C1c2c(sc3ccccc23)CCN1c1cnccc1C(F)(F)F [Example 58A, 2-(4-trifluoromethylpyridine-3-yl)-3,4-dihydro-2H-benzo[4,5]thieno[3,2-c]pyridin-1-one] |
